Read-outs that look alike come from different tables or passages of the source.
Legend:
[1] = biological target: T1, Pks13 (Mycobacterium tuberculosis, UniProt I6X8D2); test: cell-based; details: Mycobacterium tuberculosis H37Rv, read-out: % inhibition
[2] = biological target: T1, Pks13; test: cell-based; details: Mycobacterium tuberculosis H37Rv, read-out: % inhibition; remark: listed apart in the source

T1 sequence (I6X8D2 whole entry, looked up): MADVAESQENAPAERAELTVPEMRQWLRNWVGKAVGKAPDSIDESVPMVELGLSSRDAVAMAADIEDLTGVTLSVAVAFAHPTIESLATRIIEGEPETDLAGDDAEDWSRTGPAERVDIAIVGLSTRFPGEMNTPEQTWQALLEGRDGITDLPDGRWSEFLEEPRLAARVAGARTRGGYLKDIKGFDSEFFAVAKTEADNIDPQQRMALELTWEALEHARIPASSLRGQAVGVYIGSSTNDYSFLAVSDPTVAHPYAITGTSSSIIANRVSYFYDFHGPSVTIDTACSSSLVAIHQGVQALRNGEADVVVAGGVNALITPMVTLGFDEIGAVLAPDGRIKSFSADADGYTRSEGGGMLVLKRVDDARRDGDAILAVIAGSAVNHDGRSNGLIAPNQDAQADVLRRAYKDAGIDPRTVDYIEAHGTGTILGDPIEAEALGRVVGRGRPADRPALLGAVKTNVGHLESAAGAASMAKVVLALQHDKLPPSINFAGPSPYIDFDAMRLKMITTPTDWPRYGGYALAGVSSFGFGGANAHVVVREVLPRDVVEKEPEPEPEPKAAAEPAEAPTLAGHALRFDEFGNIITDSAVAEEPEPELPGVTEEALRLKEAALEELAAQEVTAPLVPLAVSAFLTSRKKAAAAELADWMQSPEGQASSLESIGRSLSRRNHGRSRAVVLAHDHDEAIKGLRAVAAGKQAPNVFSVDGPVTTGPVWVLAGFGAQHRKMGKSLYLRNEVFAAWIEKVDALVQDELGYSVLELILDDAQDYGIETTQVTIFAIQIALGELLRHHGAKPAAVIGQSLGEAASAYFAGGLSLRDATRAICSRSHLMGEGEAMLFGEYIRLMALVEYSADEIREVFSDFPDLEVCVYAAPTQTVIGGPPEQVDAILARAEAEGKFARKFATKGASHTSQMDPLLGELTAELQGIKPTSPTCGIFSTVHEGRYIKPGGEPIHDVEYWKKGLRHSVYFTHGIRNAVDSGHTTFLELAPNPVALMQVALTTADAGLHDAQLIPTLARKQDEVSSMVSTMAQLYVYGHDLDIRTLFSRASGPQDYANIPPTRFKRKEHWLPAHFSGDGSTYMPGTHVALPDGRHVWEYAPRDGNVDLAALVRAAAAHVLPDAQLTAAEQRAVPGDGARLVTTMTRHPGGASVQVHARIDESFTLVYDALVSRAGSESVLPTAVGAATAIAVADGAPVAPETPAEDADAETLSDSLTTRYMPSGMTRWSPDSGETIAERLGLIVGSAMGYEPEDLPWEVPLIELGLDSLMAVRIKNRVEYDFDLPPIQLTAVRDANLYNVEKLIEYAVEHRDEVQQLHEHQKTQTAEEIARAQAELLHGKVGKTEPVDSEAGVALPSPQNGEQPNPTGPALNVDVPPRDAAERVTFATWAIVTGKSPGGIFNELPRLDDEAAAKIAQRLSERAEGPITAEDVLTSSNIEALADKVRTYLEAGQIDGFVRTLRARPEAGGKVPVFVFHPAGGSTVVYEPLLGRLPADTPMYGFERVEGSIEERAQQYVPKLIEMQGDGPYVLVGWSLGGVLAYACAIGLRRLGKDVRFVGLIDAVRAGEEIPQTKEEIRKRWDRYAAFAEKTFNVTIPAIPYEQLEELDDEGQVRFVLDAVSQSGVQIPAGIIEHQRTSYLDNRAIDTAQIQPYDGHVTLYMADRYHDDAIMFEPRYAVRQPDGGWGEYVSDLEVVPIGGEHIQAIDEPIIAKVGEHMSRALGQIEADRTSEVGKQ

Row | Structure (SMILES) | inhibition at 13 µM [1] | inhibition at 13 µM [2]
1 | CC(C)(O)c1cnn(C(=O)N2CCC(C(C)(C)C)CC2)n1 [AA692-(2,4), AA692] | 0% | 18%
2 | CC(C)(O)c1cnn(C(=O)N2CCCCC2)n1 [AA702] | – | 0%

— publication PMC8964833, “Identification of cell wall synthesis inhibitors active against Mycobacterium tuberculosis by competitive activity-based protein profiling” (Cell Chemical Biology, 2022)
